The values that follow are results of earlier work, collected in patent US20050065127A1, “2-Alkylidene-19-nor-vitamin D derivatives for the treatment of osteosarcoma” (Pfizer Inc., priority 2003, published 2005).

This series has as its system serum calcium (bone calcium mobilization). The following applies: chronic mode, 7 days, rats; 20S compound at 130 pmol/day.

With `C=C1[C@H](O)CC(=C/C=C2\CCC[C@]3(C)[C@@H]([C@H](C)CCCC(C)(C)O)CC[C@@H]23)C[C@H]1O` [2-Methylene-19-Nor-1,25-(OH)2D3, 1α,25-dihydroxy-2-methylene-19-nor-vitamin D3], the “Bone calcium mobilization activity (serum calcium) relative to 1,25-(OH)2D3” value was 10-100 times.
